According to PubChem BioAssay AID248 (DTP/NCI, 2004):
Where “and” joins values, the source holds several entries; their conditions need not be identical. Identical values can stand only once. Toxic doses and inconclusive results are not listed. No stated cut-off is given here; in the data, active means T/C of 150% or more; inactive means T/C below 125%.

Tested on: L1210 leukemia ip in BDF1 mice, survival T/C
Assay: NCI In Vivo Anticancer Drug Screen. Data for tumor model L1210 Leukemia (intraperitoneal) in B6D2F1 (BDF1) mice
Conditions: endpoint: mean survival time, higher = longer survival
Outline: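 In this screen, tumor-bearing mice given compound are compared to those given vehicle, and their survival values are reported as a treated-to-control quotient.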

[1] = dose: 12.5 mg/kg/injection, schedule: Q01DX009 (ip), vehicle: saline
[2] = dose: 12.5 mg/kg/injection, schedule: Q04DX003 (ip), vehicle: saline
[3] = dose: 25.0 mg/kg/injection, schedule: Q01DX009 (ip), vehicle: saline
[4] = dose: 25.0 mg/kg/injection, schedule: Q04DX003 (ip), vehicle: saline
[5] = dose: 50.0 mg/kg/injection, schedule: Q01DX009 (ip), vehicle: saline
[6] = dose: 50.0 mg/kg/injection, schedule: Q04DX003 (ip), vehicle: saline
[7] = dose: 100.0 mg/kg/injection, schedule: Q01DX001 (ip), vehicle: carboxymethylcellulose (CMC)
[8] = dose: 200.0 mg/kg/injection, schedule: Q01DX001 (ip), vehicle: carboxymethylcellulose (CMC)
[9] = dose: 400.0 mg/kg/injection, schedule: Q01DX001 (ip), vehicle: carboxymethylcellulose (CMC)
[10] = dose: 100.0 mg/kg/injection, schedule: Q01DX009 (ip), vehicle: saline
[11] = dose: 100.0 mg/kg/injection, schedule: Q04DX003 (ip), vehicle: saline
[12] = dose: 200.0 mg/kg/injection, schedule: Q01DX009 (ip), vehicle: saline
[13] = dose: 200.0 mg/kg/injection, schedule: Q04DX003 (ip), vehicle: saline
[14] = dose: 50.0 mg/kg/injection, schedule: Q01DX001 (ip), vehicle: saline
[15] = dose: 100.0 mg/kg/injection, schedule: Q01DX001 (ip), vehicle: saline
[16] = dose: 6.25 mg/kg/injection, schedule: Q01DX009 (ip), vehicle: Klucel (hydroxypropylcellulose) (HPC)
[17] = dose: 12.5 mg/kg/injection, schedule: Q01DX009 (ip), vehicle: Klucel (hydroxypropylcellulose) (HPC)
[18] = dose: 25.0 mg/kg/injection, schedule: Q01DX009 (ip), vehicle: Klucel (hydroxypropylcellulose) (HPC)
[19] = dose: 100.0 mg/kg/injection, schedule: Q01DX009 (ip), vehicle: Klucel (hydroxypropylcellulose) (HPC)
[20] = dose: 100.0 mg/kg/injection, schedule: Q04DX003 (ip), vehicle: Klucel (hydroxypropylcellulose) (HPC)
[21] = dose: 200.0 mg/kg/injection, schedule: Q01DX009 (ip), vehicle: Klucel (hydroxypropylcellulose) (HPC)
[22] = dose: 200.0 mg/kg/injection, schedule: Q04DX003 (ip), vehicle: Klucel (hydroxypropylcellulose) (HPC)
[23] = dose: 400.0 mg/kg/injection, schedule: Q01DX009 (ip), vehicle: Klucel (hydroxypropylcellulose) (HPC)
[24] = dose: 400.0 mg/kg/injection, schedule: Q04DX003 (ip), vehicle: Klucel (hydroxypropylcellulose) (HPC)
[25] = dose: 400.0 mg/kg/injection, schedule: Q01DX009 (ip), vehicle: saline

Measured: T/C

CCCCCCCCN(N)C12CC3CC(CC(C3)C1)C2
inactive: dose: 6.25 mg/kg/injection, schedule: Q01DX009 (ip), vehicle: saline 106 % of control | [1] 107 % of control | [2] 113 % of control | [3] 106 % of control | [4] 113 % of control | [5] 87 % of control | [6] 113 % of control

COc1cc([N+](=O)[O-])c2nc(C)ccc2c1[N+](=O)[O-]
inactive: dose: 50.0 mg/kg/injection, schedule: Q01DX001 (ip), vehicle: carboxymethylcellulose (CMC) 100 % of control | [7] 100 % of control | [8] 100 % of control | [9] 100 % of control

NN1N=Nc2cccc3cccc1c23
inactive: [5] 96 % of control | [10] 107 % of control | [11] 92 % of control | [12] 88 % of control | [13] 91 % of control

O=S1(=O)CC(O)C1
inactive: [14] 91 % of control | [15] 100 % of control | dose: 200.0 mg/kg/injection, schedule: Q01DX001 (ip), vehicle: saline 94 % of control | dose: 400.0 mg/kg/injection, schedule: Q01DX001 (ip), vehicle: saline 105 % of control

CC(=O)c1sccc1C
inactive: [16] 93 % of control | [17] 92 % of control | dose: 12.5 mg/kg/injection, schedule: Q04DX003 (ip), vehicle: Klucel (hydroxypropylcellulose) (HPC) 101 % of control | [18] 90 % of control | dose: 25.0 mg/kg/injection, schedule: Q04DX003 (ip), vehicle: Klucel (hydroxypropylcellulose) (HPC) 92 % of control

NC(=S)N/N=C\c1[nH]c(=O)nc2ccccc12
inactive: [19] 98 % of control | [20] 103 % of control | [21] 92 % of control | [22] 100 % of control | [23] 95 % of control | [24] 97 % of control

NNC(=O)c1ccccc1CO
inactive: dose: 100.0 mg/kg/injection, schedule: Q01DX001 (ip), vehicle: saline with Tween-80 100 % of control | dose: 200.0 mg/kg/injection, schedule: Q01DX001 (ip), vehicle: saline with Tween-80 103 % of control

COc1ccc(C(=O)NN2C(N)=NC(N)=NC2(C)C)cc1
inactive: [11] 94 % of control | [13] 97 % of control

COc1ccc(C(=O)c2ccc3ccccc3c2)cc1
inactive: [7] 92 % of control | [8] 92 % of control | [9] 94 % of control

CCCCCCCCC(=O)NCc1ccc(OC)cc1
inactive: dose: 25.0 mg/kg/injection, schedule: Q01DX009 (ip), vehicle: other 93 % of control | dose: 50.0 mg/kg/injection, schedule: Q01DX009 (ip), vehicle: other 90 % of control | dose: 100.0 mg/kg/injection, schedule: Q01DX009 (ip), vehicle: other 100 % of control | dose: 100.0 mg/kg/injection, schedule: Q04DX003 (ip), vehicle: other 95 % of control | dose: 200.0 mg/kg/injection, schedule: Q01DX009 (ip), vehicle: other 92 % of control | dose: 200.0 mg/kg/injection, schedule: Q04DX003 (ip), vehicle: other 90 % of control | dose: 400.0 mg/kg/injection, schedule: Q01DX009 (ip), vehicle: other 91 % of control | dose: 400.0 mg/kg/injection, schedule: Q04DX003 (ip), vehicle: other 88 % of control

COc1ccc2c(c1)CN(S(=O)(=O)c1ccc(C)cc1)CC/C2=N\O
inactive: [10] 94 % of control | [12] 94 % of control | [25] 104 % of control

COc1ccc(CN2CCCN(Cc3ccc(OC)cc3)C2c2cc(Br)c(OC)c(OC)c2)cc1
inactive: dose: 100.0 mg/kg/injection, schedule: Q01DX001 (ip), vehicle: acetone 94 % of control | dose: 200.0 mg/kg/injection, schedule: Q01DX001 (ip), vehicle: acetone 94 % of control | dose: 400.0 mg/kg/injection, schedule: Q01DX001 (ip), vehicle: acetone 94 % of control

Nc1ccc(S(=O)(=O)CI)cc1
inactive: [7] 100 % of control | [8] 92 % of control

CC(C)CCC(O)c1cnc(OCc2ccccc2)nc1OCc1ccccc1 (stereo not given)
inactive: [20] 92 % of control | [22] 95 % of control | [24] 100 % of control

[O-][n+]1ccccc1SSc1cccc[n+]1[O-]
inactive: [16] 99 % of control | [17] 96 % of control and 98 % of control | [18] 88 % of control

CCCN(CCC)CCC(=O)O
inactive: [10] 100 % of control | [11] 97 % of control | [12] 96 % of control | [13] 108 % of control | [25] 102 % of control | dose: 400.0 mg/kg/injection, schedule: Q04DX003 (ip), vehicle: saline 101 % of control

O=C(NC(CSC(=O)OCc1ccccc1)C(=O)Oc1ccc([N+](=O)[O-])cc1)OCc1ccccc1 (stereo not given)
inactive: [19] 104 % of control | [20] 97 % of control | [21] 114 % of control | [22] 100 % of control | [23] 109 % of control | [24] 103 % of control

CCCCCCCCCCCC[n+]1ccc(C(N)=O)cc1
inactive: dose: 12.5 mg/kg/injection, schedule: Q01DX001 (ip), vehicle: saline 91 % of control | [2] 96 % of control | dose: 25.0 mg/kg/injection, schedule: Q01DX001 (ip), vehicle: saline 100 % of control | [4] 87 % of control | [14] 86 % of control | [6] 94 % of control

O=C(Nc1ccc([N+](=O)[O-])cc1)Nc1ccc([N+](=O)[O-])c(C(F)(F)F)c1
inactive: [1] 87 % of control | dose: 15.0 mg/kg/injection, schedule: Q01DX015 (ip), vehicle: saline 97 % of control | [3] 90 % of control | dose: 25.0 mg/kg/injection, schedule: Q04DX003 (ip), vehicle: acetone 86 % of control | dose: 30.0 mg/kg/injection, schedule: Q01DX015 (ip), vehicle: saline 94 % of control | [5] 90 % of control | dose: 50.0 mg/kg/injection, schedule: Q04DX003 (ip), vehicle: acetone 88 % of control | dose: 60.0 mg/kg/injection, schedule: Q01DX015 (ip), vehicle: saline 92 % of control | dose: 75.0 mg/kg/injection, schedule: Q01DX009 (ip), vehicle: saline with Tween-80 102 % of control | [15] 94 % of control | dose: 115.0 mg/kg/injection, schedule: Q01DX009 (ip), vehicle: saline with Tween-80 100 % of control | dose: 120.0 mg/kg/injection, schedule: Q01DX015 (ip), vehicle: saline 90 % of control
